Values joined by “and” are separate entries in the source; they are usually repeats but may differ in a detail not shown here. Identical values can stand only once. Like-named read-outs stand apart in the source and are kept apart here. Residues, ends and D or L forms follow the SMILES beside them. *: point of attachment. AMC = Cc1cc(=O)oc2cc(N*)ccc12; Cbz = O=C(OCc1ccccc1)*
Key:
cruzain [1] = target: T1, cruzain (Trypanosoma cruzi, UniProt P25779); experiment: biochemical; details: pH 7.5
In short: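 Fluorogenic assay at 25 °C following AMC release (ex 360/em 460 nm), with typically 0.2 nM cruzain and 10% DMSO, at pH 7.5 or 5.5 buffer with 5 mM DTT.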

[2] = tested on: trypanosomes (T. b. brucei, T. cruzi); experiment: Anti-trypanosomal activity, culture not stated; assay type: cell-based; details: culture (T. b. brucei PCF/BSF or T. cruzi-infected cardiomyoblasts) not stated
human cathepsin B = human cathepsin B (Homo sapiens (Human), UniProt P07858); experiment: Human cathepsin B inhibition, Z-FR-AMC assay; assay type: biochemical; details: pH 5.5, 25° C.
Experimental: (§1) Recombinant human cathepsins B and L were purchased from Millipore Sigma and used without further treatment. The solid proteins were dissolved into a solution of 50 mM sodium acetate (pH 5.5), 1 mM EDTA, 1 mM CHAPS, 10% (v/v) DMSO, and 5 mM DTT to final concentrations of […] in 20-mL aliquots, and stored at −80° C. until needed. These samples were then diluted into the same buffer to concentrations of −100 nM, and these dilutions were stored at 4° C. and used daily until depletion.
(§2) For assays of cathepsin L and B, inhibitors were evaluated in 0.25-mL reaction mixtures containing a buffer of sodium acetate (pH 5.5), 1 mM CHAPS, 1 mM Na2EDTA, and 5 mM DTT at 25° C. The fluorogenic substrate Cbz-Phe-Arg-7-amino-4-methyl-coumarin (Z-FR-AMC) was dissolved in 100% DMSO, as were all inhibitors, and aliquots of both substrates and inhibitors were added to reaction mixtures to final concentrations of DMSO of 10% (v/v). […] Formation of the fluorescent product AMC was monitored over 30-60-minute time courses for reaction mixtures in 96-well black microplates (Corning Costar®). Rates of peptidolysis of the dipeptide-AMC substrate(s) were measured on either a SpectraMax M5 (Molecular Devices) or a Synergy HTX (Biotek, Wisnooki, VT) microplate reader with λex=360 nm, λem=460 nm in ≥8-sec intervals. Control samples excluded substrate. The measured relative fluorescence units (RFUs) of generated AMC were converted to reaction rates of μM/s by use of a standard curve of known AMC concentrations obtained for both plate readers.

human cathepsin L = human cathepsin L (Homo sapiens (Human), UniProt P07711); experiment: Human cathepsin L inhibition, Z-FR-AMC assay; assay type: biochemical; details: for Ki: pH 5.5, 25° C.
Sequence of human cathepsin L (P07711 114-333): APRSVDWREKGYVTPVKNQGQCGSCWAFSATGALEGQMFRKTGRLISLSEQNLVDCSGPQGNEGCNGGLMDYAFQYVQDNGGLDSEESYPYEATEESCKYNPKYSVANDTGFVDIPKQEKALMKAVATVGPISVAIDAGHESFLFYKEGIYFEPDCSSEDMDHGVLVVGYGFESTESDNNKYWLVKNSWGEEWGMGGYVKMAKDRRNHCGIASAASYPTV
Experimental: as §1, §2

[3] = tested on: T. b. brucei bloodstream forms; experiment: Growth of axenic cultures of T. b. brucei bloodstream forms (BSFs)
Experimental: Selected cruzain inhibitors were evaluated in axenic cell cultures of T. b. brucei and T. cruzi. Procyclic trypomastigotes of T. b. brucei (ATCC PRA-381) were grown in the SDM-79 medium at 26° C., and bloodstream forms (ATCC PRA-383) were grown at 37° C. in the HMI-9 medium at 5% C02. […] Both forms of T. b. brucei and T. cruzi were grown in media containing 10% fetal bovine serum (FBS) and penicillin/streptomycin (50 U mL^−1). […] Control samples contained equal amounts of DMSO. T. b. brucei and T. cruzi (5 mL in flask cultures) were seeded at ˜3×10^6 cells and diluted daily, maintaining a mid-log growth phase for up to 120 h. […] After each cell dilution, fresh compound or an equal volume of DMSO (control samples) was supplemented into the cultures, while maintaining a constant concentration of each inhibitor. Cell counts were scored using a Z2 Coulter Counter.
In vitro Cell Assays. Bloodstream form T. b. brucei strain SM427 was grown in HM1-9 medium that included fetal bovine serum (10%) and antibiotics (100 U/mL penicillin-streptomycin, Gibco™). Inhibitors dissolved in 100% (v/v) DMSO stock solutions were added at final concentrations of 0.5-20 μM (final concentrations of DMSO were <1% (v/v)). T. b. brucei were seeded at ˜1×10^6 cells at 37° C., and diluted daily to maintain a log phase of growth for up to 96 h. […] After each dilution, the cell cultures were supplemented with inhibitor or DMSO (control) to keep concentrations constant. Cell density was determined and graphed as previously reported.^36 Trypanosomes were quantified using a Z2 Coulter Counter, and values of EC50 were determined after 3-4 days of treatment by the interpolation method of Huber and Koella.^37

[4] = tested on: T. b. brucei procyclic forms; experiment: Growth of axenic cultures of T. b. brucei procyclic forms (PCFs); assay type: cell-based, Trypanosoma brucei brucei; details: axenic culture, read-out: EC50 T. b. brucei PCF
[5] = tested on: SARS-CoV-2 in Vero E6 cells; experiment: Anti-CoV-2 activity in Vero E6 cells; assay type: cell-based
SARS-CoV-2 3CL protease = SARS-CoV-2 3CL protease (Severe acute respiratory syndrome coronavirus 2 (2019-nCoV) (SARS-CoV-2), UniProt P0DTD1); experiment: biochemical; assay type: biochemical; details: for Ki: read-out: Ki* 3CLpro
[6] = tested on: T. cruzi (Ca-I/72) in C2C12 murine cardiomyoblasts; experiment: T. cruzi-infected murine cardiomyoblasts (C2C12); assay type: cell-based, Trypanosoma cruzi; details: read-out: EC50 T. cruzi-infected cardiomyoblasts
Experimental: For the evaluation of the antitrypanocidal activity of cruzain inhibitors, we infected a C2C12 mouse cardiomyoblast cell line (ATCC CRL-1772) with T. cruzi strain Ca-I/72 (a gift from James Dvorak, National Institutes of Health) in […] plates. […] The plates were incubated at 37° C. for 48 h, and the wells were fixed with 2% paraformaldehyde in PBS and stained with 5 μg mL-1 4,6-diamidino-2-phenylindole. After at least 30 min of incubation at room temperature in the dark, the plates were read in an automated microscope, ImageXpress Micro XL (Molecular Devices), and the images were analyzed by custom-built software to quantify and assess viability of the parasites, as well as the host cells independently. The compilation of data was used to calculate the antiparasitic activity (EC50) and host cytotoxicity (CC50).
T. cruzi infection was evaluated in C2C12 murine cardiomyoblast cells. 384-microwell plates containing C2C12 murine cardiomyoblast cells were infected with 10^3 and 10^4 cells of T. cruzi (Ca-I/72), to which was added 3-fold serially-dilutions of inhibitor with maximal concentrations of 10 μM, followed by incubation at 37° C. for 2 days. The wells were fixed with 2% PFA in PBS, and stained by 5 μg/ml of DAPI. After >30 min of incubation in a dark environment, the plates were read on an ImageXpress MicroXL microscope (Molecular Devices). The images were analyzed to quantify parasites as well host cells.

[7] = tested on: T. cruzi epimastigotes (strain Y); experiment: Growth of axenic cultures of T. cruzi epimastigotes
Experimental: Selected cruzain inhibitors in axenic cell cultures of Trypanosoma brucei brucei (procyclic trypomastigotes; ATCC PRA-381) and Trypanosoma cruzi (epimastigote forms; strain Y, ATCC 50832GFP) were tested. T. b. brucei is grown in SDM-79 medium, and T. cruzi is grown in ATCC medium (1029 LIT medium). Both media included fetal calf serum (10%) and penicillin/streptomycin (50 U/mL). […] T. brucei and T. cruzi (5 mL in flask cultures) at 26° C. were seeded at ˜3×10^6 cells, and diluted daily maintaining a mid-log growth phase for up to 100 hrs. Cell counts were scored using a Z2 Coulter Counter. After each cell dilution, fresh compound or an equal volume of DMSO (control samples), was supplemented into the cultures. […] Cruzain inhibitors where the highest concentration reflects the upper limit of solubilities of the inhibitors in 1% (v/v) DMSO solutions were evaluated. These inhibitors are likely to bind to proteins in fetal calf serum, and for these reasons, fresh inhibitors were added each time cells were re-fed.
Selected cruzain inhibitors were evaluated in axenic cell cultures of T. b. brucei and T. cruzi. Procyclic trypomastigotes of T. b. brucei (ATCC PRA-381) were grown in the SDM-79 medium at 26° C., and bloodstream forms (ATCC PRA-383) were grown at 37° C. in the HMI-9 medium at 5% C02. T. cruzi (epimastigote forms, strain Y, ATCC 50832GFP) was grown in the ATCC medium (1029 LIT medium). Both forms of T. b. brucei and T. cruzi were grown in media containing 10% fetal bovine serum (FBS) and penicillin/streptomycin (50 U mL^−1). […] Control samples contained equal amounts of DMSO. T. b. brucei and T. cruzi (5 mL in flask cultures) were seeded at ˜3×10^6 cells and diluted daily, maintaining a mid-log growth phase for up to 120 h. […] After each cell dilution, fresh compound or an equal volume of DMSO (control samples) was supplemented into the cultures, while maintaining a constant concentration of each inhibitor. Cell counts were scored using a Z2 Coulter Counter.

[8] = Solubility of cruzain inhibitors in 10% DMSO, light scattering; assay type: physicochemical
Experimental: Synthetic PVHIs such as 5-16 and 22-24 at final concentrations of 1-200 μM were added to 0.25 mL solutions of 10% DMSO (v/v) in clear 96-well Greiner plates, and absorbance at 620 nm was measured using a BioTek M2 Synergy plate reader at t=0 and 120 min to evaluate increased light scattering and precipitated inhibitor.

cruzain [9] = target: T1, cruzain; details: 2% DMSO, from Ref. 40; cited from earlier work
cruzain [10] = target: T1, cruzain; experiment: Kinetic parameters of peptide substrates for cruzain; assay type: biochemical; details: relative to Cbz-Phe-Arg-AMC
Experimental: All enzyme assays were performed at 25° C. Initial rates of the peptidolytic reaction catalyzed by cruzain were measured by monitoring the fluorescence generated by cleavage of the dipeptide-AMC bond. Assays were conducted in 96-well plates (Greiner; flat-bottom, clear black plates) in a total volume of 250 μL, containing either 50 mM MES (pH 7.5), 50 mM TAPSO, 100 mM DEA, 1 mM CHAPS, 1 mM Na2EDTA, 5 mM DTT, and 10% DMSO (v/v) or 50 mM sodium acetate (pH 5.5), 50 mM MES, 100 mM TEA, 1 mM CHAPS, 1 mM Na2EDTA, 5 mM DTT, and 10% DMSO (v/v). Substrates were dissolved in 100% DMSO and were then diluted 10-fold such that when added to reaction mixtures, final DMSO concentration was 10% (v/v). Reactions were initiated with the addition of 1-10 μL of cruzain (final concentrations: 0.1-3.0 nM (preincubation studies)). Fluorescence was measured on either a SpectraMax M5 (Molecular Devices) or a Synergy HTX (BioTek, Winooski, VT) microplate reader (λex=360 nm, λem=460 nm). Initial rates were determined from continuous kinetic time courses and calculated from the earliest time points, typically at less than 10 min.
Initial velocity data for cruzain-catalyzed reactions of fluorogenic peptide substrates were determined by fitting to eq 1 using GraphPad Prism 6.0 or SigmaPlot 12.0. For eq 1, kcat is the turnover number, [E]t is the concentration of active sites of cruzain, and Ka is the Michaelis constant for the substrate A. Cruzain concentrations were determined by spectrophotometric analysis of purified sample solutions as described.^44

[11] = Host cell cytotoxicity in the T. cruzi infection model; assay type: cell-based, mouse; details: mouse; host cardiomyoblasts; read-out: C2C12 Cytotoxicity CC50
Experimental: The plates were incubated at 37° C. for 48 h, and the wells were fixed with 2% paraformaldehyde in PBS and stained with 5 μg mL-1 4,6-diamidino-2-phenylindole. After at least 30 min of incubation at room temperature in the dark, the plates were read in an automated microscope, ImageXpress Micro XL (Molecular Devices), and the images were analyzed by custom-built software to quantify and assess viability of the parasites, as well as the host cells independently. The compilation of data was used to calculate the antiparasitic activity (EC50) and host cytotoxicity (CC50).
T. cruzi infection was evaluated in C2C12 murine cardiomyoblast cells. […] The wells were fixed with 2% PFA in PBS, and stained by 5 μg/ml of DAPI. After >30 min of incubation in a dark environment, the plates were read on an ImageXpress MicroXL microscope (Molecular Devices). The images were analyzed to quantify parasites as well host cells.

human dermal fibroblasts = experiment: Human cell toxicity, resazurin viability; assay type: cell-based; details: human dermal fibroblasts; read-out: Human Cell Cytotoxicity CC50
Experimental: Primary human dermal fibroblast (HDF) cells were used to evaluate human cell toxicity of cruzain inhibitors. HDF cells were plated in a 384-well plate at 2400 cells per well (62,000 cells mL^−1). Inhibitors in 100% DMSO were added in duplicate to final concentrations of 0.001-0.1 mM and 1% DMSO (v/v) with 1% DMSO as a control sample, and cells were cultured at 37° C. for 48 h, followed by the addition of resazurin. Cell viability was then assessed by reading of fluorescence (excitation/emission: 544 nm/590 nm) after an additional 24 h of incubation.

[12] = obtained >10 minutes following initiation of reaction by addition of enzyme, read-out: Ki* Cruzain
[13] = read-out: EC50 T. b. brucei BSF, axenic culture
[14] = apparent tight-binding inhibition constant, 25° C., read-out: Ki*

T1 sequence (P25779 123-467 limits assumed): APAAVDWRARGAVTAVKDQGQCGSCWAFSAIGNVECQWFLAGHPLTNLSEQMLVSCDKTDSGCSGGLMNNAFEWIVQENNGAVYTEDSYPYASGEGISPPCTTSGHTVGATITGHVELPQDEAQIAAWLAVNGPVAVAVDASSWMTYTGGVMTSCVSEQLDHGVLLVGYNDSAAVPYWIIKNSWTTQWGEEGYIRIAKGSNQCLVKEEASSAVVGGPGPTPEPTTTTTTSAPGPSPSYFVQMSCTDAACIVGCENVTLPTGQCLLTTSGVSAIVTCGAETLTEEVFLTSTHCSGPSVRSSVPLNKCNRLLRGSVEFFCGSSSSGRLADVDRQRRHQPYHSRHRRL

| Structure (SMILES) | Ki (cruzain [1]; [12]) [µM] | EC50 [2] [µM] | Ki (human cathepsin B; read-out: Ki* hCatB) [µM] | Ki (human cathepsin L; read-out: Ki* hCatL) [µM] | EC50 [3, 13] | EC50 [4] [µM] | EC50 [5] | Ki (SARS-CoV-2 3CL protease; pH 7.5) [µM] | EC50 ([6]; C2C12 murine cardiomyoblasts) | also measured |
| --- | --- | --- | --- | --- | --- | --- | --- | --- | --- | --- |
| O=C(NC(Cc1ccccc1)C(=O)NC1Cc2cc(F)ccc2OC1O)OCc1ccccc1 (centres unmarked) [Compound 34] | 0.048 ± 0.002 | 3 to 11 | 2.3 ± 0.2 | 0.023 ± 0.001 | 2.7 µM | 11.1 | 4 µM and 2.5 to 7.5 µM | > 10 | 3.5 µM and 3 to 5.7 µM |  |
| COC(=O)c1ccc2c(c1)CC(NC(=O)C(Cc1ccccc1)NC(=O)OCc1ccccc1)C(O)O2 (centres unmarked) [Compound 35] | 0.018 ± 0.0005 | 3.5 to 6.7 | 0.67 ± 0.03 | 0.0108 ± 0.0008 |  | 6.7 | 2.5 µM | > 10 | 3.5 ± 0.3 µM | EC50 ([7]; read-out: T. cruzi axenic culture EC50, epimastigotes): 2 to 20 µM; inhibits cathepsin L more potently than cruzain (human cathepsin L): 6 fold |
| O=C(N[C@@H](Cc1ccccc1)C(=O)N[C@H](/C=C/c1ccc([N+](=O)[O-])cc1)Cc1ccccc1)OCc1ccccc1 [Compound 6, Benzyl ((S)-1-(((S,E)-4-(4-Nitrophenyl)-1-phenylbut-3-en-2-yl)-amino)-1-oxo-3-phenylpropan-2-yl)carbamate] |  |  |  |  |  |  |  |  |  | Ki (cruzain [1]; [14]): 0.37 ± 0.02 µM; aqueous solubility [8]: poor aqueous solubility |
| O=C(N[C@@H](Cc1ccccc1)C(=O)N[C@H](/C=C/c1ccccc1)Cc1ccccc1)OCc1ccccc1 [Compound 5, Benzyl ((S)-1-(((S,E)-1,4-Diphenylbut-3-en-2-yl)amino)-1-oxo-3-phenylpropan-2-yl)carbamate] |  |  |  |  |  |  |  |  |  | Ki (cruzain [1]; apparent initial inhibition constant, 25° C., read-out: Ki): 1.8 ± 0.1 µM; Ki (cruzain [1]; [14]): 0.87 µM; aqueous solubility [8]: poor aqueous solubility |
| Cc1cc(=O)oc2cc(NC(=O)C(C)NC(=O)C(Cc3ccccc3)NC(=O)OCc3ccccc3)ccc12 (stereo not drawn) [Compound S12, Cbz-Phe-Ala-AMC] |  |  |  |  |  |  |  |  |  | Km (cruzain [9]): 38 ± 2 µM; kcat (cruzain [9]): 0.89 ± 0.06 s⁻¹; kcat/Km (cruzain [9]): 23000 ± 3000 M⁻¹ s⁻¹; kcat rel (cruzain [10]): 0.09 |
| O=C(N[C@@H](Cc1ccccc1)C(=O)N[C@H](/C=C/c1ccccn1)CCc1ccccc1)OCc1ccccc1 [Compound 13, Benzyl ((S)-1-Oxo-3-phenyl-1-(((S,E)-5-phenyl-1-(pyridin-2-yl)-pent-1-en-3-yl)amino)propan-2-yl)carbamate] |  |  |  |  |  | > 10 |  |  | 5.9 ± 0.3 µM | Ki (human cathepsin B; 10% DMSO, read-out: Ki* Human Cathepsin B): 6.5 ± 0.9 µM; EC50 ([7]; Trypanosoma cruzi, read-out: T. cruzi axenic culture EC50, epimastigotes): > 20 µM; T. cruzi axenic culture EC50 ([7]; epimastigotes): poorly effective; Ki (human cathepsin L; 10% DMSO, read-out: Ki* Human Cathepsin L): 1.9 ± 0.2 µM; CC50 at 48 h [11]: > 10 µM; EC50 ([3]; Trypanosoma brucei, read-out: EC50 T. b. brucei BSF, axenic culture): 4 ± 2 µM; EC50 ([4]; Trypanosoma brucei): 5.5 µM; EC50 ([6]; Trypanosoma cruzi, C2C12, C2C12 murine cardiomyoblasts): 5 to 10 µM; CC50 (human dermal fibroblasts): > 100 µM |
| O=C(NC(Cc1ccccc1)C(=O)NC1Cc2cc(Cl)ccc2OC1O)OCc1ccccc1 (centres unmarked) [Compound 33] | 0.074 ± 0.01 | 6 to 10 | 1.4 ± 0.1 | 0.027 ± 0.0007 | 6 µM and 5.8 µM | 10 |  | > 10 |  |  |
| Cc1cc(=O)oc2cc(NC(=O)[C@H](CCCN=C(N)N)NC(=O)[C@H](CCCN=C(N)N)NC(=O)OCc3ccccc3)ccc12 [Compound S6, Cbz-Arg-Arg-AMC] (Cbz-Arg-Arg-{AMC}) |  |  |  |  |  |  |  |  |  | Km (cruzain [9]): 3.7 ± 0.4 µM; kcat (cruzain [9]): 7.2 ± 0.1 s⁻¹; kcat/Km (cruzain [9]): 1.9e+06 ± 200000 M⁻¹ s⁻¹; kcat rel (cruzain [10]): 0.75 |
| COc1ccc2c(c1)CC(NC(=O)C(Cc1ccccc1)NC(=O)OCc1ccccc1)C(O)O2 (centres unmarked) [Compound 31] | 0.35 ± 0.03 | 3 to 11 | 5.5 ± 0.4 | 0.038 ± 0.002 | 3 µM and 2.6 µM | 11 | 2.5 µM and 2.5 to 7.5 µM |  |  | Ki* 3CLpro (SARS-CoV-2 3CL protease): not an inhibitor of 3CL protease; Ki (SARS-CoV-2 3CL protease): > 10 µM |

— patent US20240150396A1 (The Texas A&M University System, priority 2021, published 2024)
